Tests used:
[1] = biological target: T1, NAD-dependent protein deacetylase sirtuin-2 (Homo sapiens, UniProt Q8IXJ6); assay: Inhibition of human recombinant SIRT2 using fluor de Lys as substrate after 1 hr by fluorimeter analysis
T1 sequence (Q8IXJ6 whole entry): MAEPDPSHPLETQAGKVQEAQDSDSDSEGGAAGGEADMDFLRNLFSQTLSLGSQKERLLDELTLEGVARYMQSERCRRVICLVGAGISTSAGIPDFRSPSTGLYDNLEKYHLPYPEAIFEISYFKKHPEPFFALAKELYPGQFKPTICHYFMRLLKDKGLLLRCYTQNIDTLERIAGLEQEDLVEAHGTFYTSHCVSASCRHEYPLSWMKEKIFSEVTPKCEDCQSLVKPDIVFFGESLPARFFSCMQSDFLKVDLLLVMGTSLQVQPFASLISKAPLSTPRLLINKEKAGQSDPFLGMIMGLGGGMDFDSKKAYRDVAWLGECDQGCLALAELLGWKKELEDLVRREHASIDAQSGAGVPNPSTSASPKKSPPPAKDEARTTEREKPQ

[2] = biological target: T2, NAD-dependent protein deacetylase sirtuin-1 (Homo sapiens, UniProt Q96EB6); assay: Inhibition of human recombinant SIRT1 using fluor de Lys as substrate after 1 hr by fluorimeter analysis
T2 sequence (Q96EB6 whole entry): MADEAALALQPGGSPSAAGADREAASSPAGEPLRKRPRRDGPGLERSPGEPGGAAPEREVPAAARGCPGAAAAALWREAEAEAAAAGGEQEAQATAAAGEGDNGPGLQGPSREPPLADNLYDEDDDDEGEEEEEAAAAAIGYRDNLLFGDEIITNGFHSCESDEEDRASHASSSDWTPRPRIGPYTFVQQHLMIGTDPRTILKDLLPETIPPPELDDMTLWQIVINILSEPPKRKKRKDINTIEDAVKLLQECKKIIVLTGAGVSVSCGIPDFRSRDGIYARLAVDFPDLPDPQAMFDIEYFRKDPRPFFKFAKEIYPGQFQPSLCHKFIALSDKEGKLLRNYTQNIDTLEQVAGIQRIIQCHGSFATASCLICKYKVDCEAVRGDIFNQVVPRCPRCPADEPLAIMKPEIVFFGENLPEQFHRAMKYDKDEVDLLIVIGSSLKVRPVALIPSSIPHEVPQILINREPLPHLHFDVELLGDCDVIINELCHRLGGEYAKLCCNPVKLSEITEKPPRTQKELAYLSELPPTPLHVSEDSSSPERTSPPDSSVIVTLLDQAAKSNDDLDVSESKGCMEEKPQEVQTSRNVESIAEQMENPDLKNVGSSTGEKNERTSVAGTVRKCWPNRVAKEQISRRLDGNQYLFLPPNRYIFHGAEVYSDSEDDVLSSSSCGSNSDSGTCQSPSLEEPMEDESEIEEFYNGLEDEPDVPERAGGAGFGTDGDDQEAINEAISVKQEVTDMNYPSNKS

[3] = biological target: T3, NAD-dependent protein deacetylase sirtuin-1 (Homo sapiens) (UniProt Q96EB6); assay: Inhibition of human recombinant SIRT1 using fluor de Lys as substrate at 60 uM after 1 hr by fluorimeter analysis
T3 sequence (whole entry): T2 sequence (Q96EB6 whole entry)

[4] = biological target: T4, NAD-dependent protein deacetylase sirtuin-2 (Homo sapiens) (UniProt Q8IXJ6); assay: Inhibition of human recombinant SIRT2 using fluor de Lys as substrate at 60 uM after 1 hr by fluorimeter analysis
T4 sequence (whole entry): T1 sequence (Q8IXJ6 whole entry)

H1299 = assay: Inhibition of sirtuin in human H1299 cells assessed increase in alpha-tubulin acetylation at 60 uM after 24 hrs by Western blot analysis in presence of trichostatin-A relative to control; format: cell-based

Structure (SMILES) | IC50 [1] [µM] | IC50 [2] [µM] | inhibition [3] [%] | inhibition [4] [%] | fold change (FC) (H1299)
CCCOc1ccc(Cn2c(-c3ccccc3)c(Cc3c(O)ccc4ccccc34)c(=O)[nH]c2=S)cc1 | 6 | > 120 | 15.6 | 85.4 | –
CCCCn1c(-c2ccccc2C)c(Cc2c(OC)ccc3ccccc23)c(=O)[nH]c1=S | – | – | 11.5 | 37.3 | –
CCCOc1ccc(Cn2c(-c3ccccc3)c(Cc3c(OC)ccc4ccccc34)c(=O)[nH]c2=S)cc1 | 11 | 61.9 | 38 | 71.8 | –
CCOc1ccc(Cn2c(-c3ccccc3)c(Cc3c(OC)ccc4ccccc34)c(=O)[nH]c2=S)cc1 | 16 | > 120 | 19.3 | 72.2 | –
CCCCOc1ccc(Cn2c(-c3ccccc3)c(Cc3ccccc3)c(=O)[nH]c2=S)cc1 | – | – | 8.5 | 63.3 | –
COc1ccc(Cn2c(-c3ccccc3)c(Cc3c(OCc4ccccc4)ccc4ccccc34)c(=O)[nH]c2=S)cc1 | – | – | 29.8 | 56.9 | –
CCOc1ccc(Cn2c(-c3ccccc3)c(Cc3c(O)ccc4ccccc34)c(=O)[nH]c2=S)cc1 | 4 | > 120 | 13.4 | 88.9 | 1.7
CCCOc1ccc(Cn2c(-c3ccccc3)c(Cc3c(OCc4ccccc4)ccc4ccccc34)c(=O)[nH]c2=S)cc1 | – | – | 22.8 | 65.1 | –
O=c1[nH]c(=S)[nH]c(-c2ccccc2)c1Cc1c(O)ccc2ccccc12 | – | – | – | – | 1.3
COc1ccc2ccccc2c1Cc1c(-c2ccccc2)n(Cc2ccccc2)c(=S)[nH]c1=O | – | – | – | 37.7 | –
O=c1[nH]c(=S)n(Cc2ccccc2)c(-c2ccccc2)c1Cc1c(OCc2ccccc2)ccc2ccccc12 | – | – | 25.4 | 48.4 | –
COc1ccc(Cn2c(-c3ccccc3)c(Cc3c(OC)ccc4ccccc34)c(=O)[nH]c2=S)cc1 | – | – | 8.8 | 66.1 | –
O=c1[nH]c(=S)n(Cc2ccccc2)c(-c2ccccc2)c1Cc1ccccc1 | – | – | 23 | 45.1 | –
COc1ccc(Cn2c(-c3ccccc3)c(Cc3ccccc3)c(=O)[nH]c2=S)cc1 | – | – | 32.2 | 67 | –
CCOc1ccc(Cn2c(-c3ccccc3)c(Cc3c(OCc4ccccc4)ccc4ccccc34)c(=O)[nH]c2=S)cc1 | – | – | 36.6 | 67.2 | –
O=c1[nH]c(=S)n(Cc2ccccc2)c(-c2ccccc2)c1Cc1c(O)ccc2ccccc12 | – | – | 10.8 | 62 | –
CCCCOc1ccc(Cn2c(-c3ccccc3)c(Cc3c(OC)ccc4ccccc34)c(=O)[nH]c2=S)cc1 | – | – | 32.7 | 66.1 | –
CCCCn1c(-c2ccc(Cl)cc2)c(Cc2c(OC)ccc3ccccc23)c(=O)[nH]c1=S | – | – | 18.4 | 49.4 | –
COc1ccc(Cn2c(-c3ccccc3)c(Cc3c(O)ccc4ccccc34)c(=O)[nH]c2=S)cc1 | 12 | 58.2 | – | 73.4 | –
COc1ccc2ccccc2c1Cc1c(-c2ccccc2)n(C)c(=S)[nH]c1=O | – | – | 36.2 | 37.7 | –
O=c1cc(-c2ccccc2)n(Cc2ccccc2)c(=S)[nH]1 | – | – | 1.8 | 27 | –
CCOc1ccc(Cn2c(-c3ccccc3)c(Cc3ccccc3)c(=O)[nH]c2=S)cc1 | 10 | 68.1 | 35 | 73.3 | –

— ChEMBL document CHEMBL3217484, “N1-Benzyl substituted cambinol analogues as isozyme selective inhibitors of the sirtuin family of protein deacetylases” (Medchemcomm, 2011)
